# Assay results: patent US10080756B2, “Combination methods for treating cancers” (Gilead Sciences, Inc., priority 2014, dated 2018)
# Tests used:
# [1] = tested on: SU-DHL-2; experiment: Cell Titer Glo viability assay, SU-DHL-2; type: cell-based; conditions: Homo sapiens; SU-DHL-2, DLBCL; single agent; 72 hours; read-out: Inhibition of Viability, EC50
# Experimental: (§1) All procedures were performed at Gilead Sciences, Inc. in Branford, The compound of formula (I), cyclophosphamide, doxorubicin and vincristine sulfate were dissolved in DMSO to prepare stock solutions that were serially diluted three-fold in DMSO in a 96 well plate format at 1000× so the final starting assay concentrations tested would be 10 μM, 200 μM, 10 μM, and 1 μM respectively, for each compound. Compound plates were diluted 1:100 in RPMI without serum or additives creating a 10× stock. Cells were seeded into a 96-well plate at 10,000-20,000 cells per well in 100 μl of growth media appropriate to the cell line supplemented with 100 U/L penicillin-streptomycin. OCI-Ly3, OCI-Ly4 and OCI-Ly7 were grown in Iscove's+20% FBS, OCI-Ly19 was grown in alphaMEM+20% FBS, and all other cell lines were grown in RPMI+10% FBS. To each well, 11 μl of 10× compound was added in a final concentration of 0.1% DMSO and cells were incubated at 37° C. in 5% CO2 for 72 hours. Cell viability was assessed with Cell Titer Glo (Promega, Madison, Wis.) following the manufacturer's protocol on an Envision plate reader (Perkin Elmer, Waltham, Mass.). EC50 values were determined using a four parameter variable slope model with GraphPad Prism 6.0 software. All EC50 values represent mean values of from duplicate dose response curves.
# [2] = tested on: 10 diffuse large B-cell lymphoma (DLBCL), 4 multiple myeloma (MM), 2 follicular lymphoma (FL), and 1 mantle cell lymphoma (MCL) cell lines; experiment: Cell Titer Glo viability assay, summary over all cell lines tested; type: cell-based; conditions: at concentrations <3000 nM
# Experimental: as §1
# [3] = tested on: SU-DHL-10; experiment: SU-DHL-10 mouse xenograft model of diffuse large B cell lymphoma, tumor growth; type: in vivo; conditions: for complete or partial regressions (in words): single agents; for partial tumor regressions: treatment alone
# Experimental: Entospletinib was evaluated for efficacy in vivo as a single agent and in combination with vincristine in a subcutaneous cell line tumor xenograft model in male SCID beige mice using the human diffuse large B-cell lymphoma cell line, SU-DHL-10 in a 2×2 dose level matrix of Entospletinib and vincristine.
# Formulation—Entospletinib was formulated in a complete vehicle of 0.5% HPMC-0.2% Tween 80 (pH 3.5 50 mM acetate buffer, and the lower dose was prepared by direct dilution). The high dose formulation was mixed using a stir bar (and Polytroned briefly as needed to break up clumps of compound) to form a yellow solution (pH=1.8), which became an opaque suspension within 30 minutes. The dosing suspension was prepared fresh daily and stored at 4° C. protected from light between treatments.
# The formulation for the highest dose group of vincristine was prepared by diluting the stock solution with 0.9% sterile saline, and the lower dose was prepared by direct dilution of that stock with saline. […] The dosing formulations were prepared just prior to each treatment.
# Male Harlan SCID beige mice (C.B-17/IcrHsd-Prkdc^scidLyst^bg-J) were used in this study. They were 6-7 weeks old on Day 1 of the experiment and were fed irradiated Harlan 2918.15 Rodent Diet and water ad libitum. Animals were housed in static cages with Bed-O'Cobs™ bedding (The Andersons Lab Bedding Products) inside Biobubble® Clean Rooms that provide H.E.P.A filtered air into the bubble environment at 100 complete air changes per hour. All treatments, body weight determinations, and tumor measurements were carried out in the bubble environment. The environment was controlled to a temperature range of 70°±2° F. and a humidity range of 30-70%.
# SU-DHL-10 cells were obtained from Leibniz Institute DSMZ-German Collection of Microorganisms and Cell Cultures (DSMZ). They were grown in RPMI 1640 medium which was modified with 1% 100 mM Na pyruvate, 1% 1M HEPES buffer, 1% of a 45% glucose solution and supplemented with 10% non-heat-inactivated Fetal Bovine Serum (FBS) and 1% 100× Penicillin/Streptomycin/L-Glutamine (PSG). The growth environment was maintained in an incubator with a 5% CO2 atmosphere at 37° C. The cells were centrifuged at 200 rcf for 8 minutes at 8° C., the supernatant aspirated, and the pellet re-suspended in cold Dulbecco's Phosphate Buffered Saline (DPBS) by pipetting. An aliquot of the homogeneous cell suspension was diluted with a trypan blue solution and counted using a Luna automated cell counter. The pre-implantation cell viability was 91%. The cell suspension was centrifuged at 200 rcf for 8 minutes at 8° C. The supernatant was aspirated and the cell pellet was re-suspended in cold 50% serum-free medium:50% Matrigel® Matrix (Corning) to generate a final concentration of 2.5E+07 cells/ml. The cell suspension was maintained on wet ice during implantation. Following implantation, an aliquot of the remaining cells was diluted with a trypan blue solution and counted to determine the post-implantation cell viability (91%). Test animals were implanted subcutaneously, high in the axilla (just under the fore limb) on Day 0 with 5.0×10^6 cells in 0.2 ml of 50% serum-free medium: 50% Matrigel® Matrix using a 27-gauge needle and syringe.
# All mice were sorted into study groups based on tumor burden (estimated from caliper measurements). Efficacy was evaluated by tumor volume/weight monitored during and after treatment. Tumor burden (mg) was measured three times weekly by using caliper measurements and converting to tumor mass by the formula for the volume of a prolate ellipsoid assuming unit density as: Tumor burden (mg)=(L×W^2)/2 • where L and W are the respective orthogonal tumor length and width measurements (mm). The criteria used for a successful distribution in this study was a mean tumor burden for all groups within 10% of the overall mean tumor burden for the study population Treatment began on Day 16 at an overall mean tumor burden of 197 mm^3. […]
# [4] = tested on: SU-DHL-4; experiment: Cell Titer Glo viability assay, SU-DHL-4; type: cell-based; conditions: Homo sapiens; SU-DHL-4, DLBCL; single agent; 72 hours; read-out: Inhibition of Viability, EC50
# Experimental: as §1
# [5] = Plasma levels in SU-DHL-10 xenograft study; type: in vivo, mouse
# Experimental: On the 16th day post-tumor implantation, animals with established tumors (n=9 animals per group) were treated for 3 days by oral gavage with either vehicle or Entospletinib at 75 mg/kg or 25 mg/kg twice daily (BID). […] This dose level is designated 75/50 mg/kg.
# Efficacy was evaluated by tumor volume measurements. Plasma levels of Entospletinib and vincristine were evaluated on the third day of dosing Entospletinib (Day 19) and the last day of dosing (Day 32). Tolerability was evaluated by daily observations, body weight (3 times per week) and circulating blood cell counts at the end of the study.
# [6] = Cell Titer Glo viability assay, summary over all cell lines tested; type: cell-based; conditions: B-cell; range over the 17 cell lines of Table 1; read-out: EC50 values to inhibit cell viability, range over cell lines
# Experimental: as §1
EC50 [1] [µM],EC50 [4] [µM],Compound,inhibition of cell viability in any of the cell lines tested [2],Day 31 % Tumor Growth Inhibition ([3]; ENTO 25 mg/kg BID + Vehicle for VCR Q7Dx3 (group 3)) [%],Day 31 % Tumor Growth Inhibition ([3]; ENTO 75/50 mg/kg BID + Vehicle for VCR Q7Dx3 (group 2)) [%],inhibition of tumor growth (in words) ([3]; Entospletinib dosed alone at 25 or 75/50 mg/kg),complete or partial regressions (in words) [3],partial tumor regressions [3] [%],plasma concentrations on the third day of dosing ([5]; 75 mg/kg BID),"plasma concentrations at the end of study at Cmin (trough) ([5]; 25 and 50 mg/kg BID, respectively, compared with mouse whole blood values for inhibition of SYK)",EC50 [6] [µM],Day 31 % Tumor Growth Inhibition ([3]; Vehicle for ENTO + VCR 0.15 mg/kg Q7Dx3 (group 5)) [%],Day 31 % Tumor Growth Inhibition ([3]; Vehicle for ENTO + VCR 0.5 mg/kg Q7Dx3 (group 4)) [%],inhibition of tumor growth (in words) ([3]; vincristine at both 0.15 and 0.5 mg/kg)
> 3,> 3,"c1cn2cc(-c3ccc4cn[nH]c4c3)nc(Nc3ccc(N4CCOCC4)cc3)c2n1 [Compound of Formula I, 6-(1H-indazol-6-yl)-N-(4-morpholinophenyl)imidazo[1,2-a]pyrazin-8-amine]",did not show inhibition cell viability,20,39,inhibited tumor growth but to a lesser degree than that seen with vincristine,no complete or partial regressions,0,higher than planned plasma concentrations,exceed the in vitro pervanadate-stimulated mouse whole blood EC50 and EC50 values for inhibition of SYK,,,,
0.065,0.075,"CC[C@]1(O)C[C@H]2CN(CCc3c([nH]c4ccccc34)[C@@](C(=O)OC)(c3cc4c(cc3OC)N(C=O)[C@H]3[C@@](O)(C(=O)OC)[C@H](OC(C)=O)[C@]5(CC)C=CCN6CC[C@]43[C@@H]65)C2)C1 [Vincristine, vincristine]",,,,,no complete or partial regressions,0,,,≤ 0.103,42,85,significant inhibition of tumor growth
